US11440923B2, “Substituted macrocyclic indole derivatives” (Bayer Aktiengesellschaft, priority 2017, dated 2022)
Counter-ions that a name gives are not always drawn. Like-named read-outs stand apart in the source and are kept apart here.

Columns and labels:
SUDHL10 cells [1] = test: Induction of caspase-3/7 activity in SUDHL10 cells (Assay 4); format: cell-based
In short: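 Caspase-3/7 activity measured in DLBCL lines after 3 h compound exposure at 37 °C, following overnight plating; Caspase-Glo 3/7 luminescence read after 1 h at 37 °C. Medium-only background subtracted, values normalized to mean of DMSO-treated cells.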

SUDHL10 cells [2] = test: Induction of cytotoxicity in SUDHL10 cells (Assay 6); format: cell-based
In short: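 SUDHL5 and SUDHL10 cells plated and held overnight at 37° C, then incubated 5 h at 37° C with compound. Viability measured by CellTiter-Glo luminescence after 15 min shaking at room temperature. Cell-free medium wells served as control.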

HMC-1-8 cells = test: Antiproliferation assay HMC-1-8 (Assay 7); format: cell-based
In short: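 Cells were plated overnight at 37° C, then compound-treated for 72 h. Viability was measured by CellTiter-Glo luminescence.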

BCL-XL = BCL-XL (Homo sapiens (Human), UniProt Q07817); test: Protein-protein interaction assay BCL-XL/Bad BH3 peptide (BCL-XL assay, TR-FRET); format: binding; settings: read-out: BCL-XL Assay IC50 (median)
Chain of BCL-XL (Q07817 1-212): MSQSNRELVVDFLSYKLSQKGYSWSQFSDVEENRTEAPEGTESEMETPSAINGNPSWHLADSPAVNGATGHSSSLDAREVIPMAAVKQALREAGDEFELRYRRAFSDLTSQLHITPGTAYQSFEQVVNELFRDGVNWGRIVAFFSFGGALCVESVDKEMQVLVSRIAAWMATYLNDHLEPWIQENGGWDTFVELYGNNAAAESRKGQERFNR
Protocol: Assay 2 Protein-Protein Interaction Assay: BCL-XL/Bad BH3 Peptide (BCL-XL Assay)
The dose-dependent inhibition by the compounds described in this invention of the interaction between BCL-XL and the BH3 domain of Bad (both human) was determined using a steady state binding competition assay with time-resolved fluorescence energy transfer (TR-FRET) readout. For that purpose BCL-XL (amino acids 1-212, C-terminal fused to a hexahistidine (6×His) tag (SEQ ID 3) and a synthetic Bad BH3-derived peptide of sequence Biotin-PEG2-PEG2-[…]-Nle-[…]-amide (SEQ ID 4) served as protein receptor and tracer ligand respectively. The recombinant BCL-XL protein (expressed in E. coli) was purchased from BPS Bioscience (San Diego, Calif., USA). The Bad BH3-derived peptide can be obtained from e.g. Biosyntan (Berlin, Germany).
In the assay 11 different concentrations of each compound (0.1 nM, 0.33 nM, 1.1 nM, 3.8 nM, 13 nM, 44 nM, 0.15 μM, 0.51 μM, 1.7 μM, 5.9 μM and 20 μM) were typically measured as duplicates in the same microtiter plate. For that, 100-fold concentrated DMSO solutions were prepared by serial dilutions (1:3.4) of a 2 mM stock solution in a clear, 384-well microtiter plate (Greiner Bio-One, Frickenhausen, Germany). From there, 50 nl were transferred in a dark test plate (Greiner Bio-One, Frickenhausen, Germany). The assay was initiated by addition of 2 μL of a 2,5-fold concentrated His-BCL-XL solution (usually for a 1 nM end concentration in 5 μL reaction volume) in aqueous assay buffer [50 mM Tris/HCl pH 7, 100 mM sodium chloride (NaCl), 50 mM potassium fluoride (KF), 0.005% Tween-20, 2 mM DTT, 0.1% bovine gamma globulin (BGG)] to the compounds in the assay plate. This was followed by a 10-minute incubation step at 22° C. for pre-equilibration of the putative complex between His-BCL-XL and the compounds. After that, 3 μL of a 1.67-fold concentrated solution (in assay buffer) consisting of Bad BH3-derived peptide (1 nM end concentration) and TR-FRET detection reagents [1.67 nM anti-His-Eu cryptate and 1.67 nM streptavidin-XL665 (both from Cisbio Bioassays, Codolet, France)], were added.
The mixture was incubated in the dark for one hour at 22° C. and then overnight at 4° C. The formation of BCL-XL/Bad complexes was determined by measuring the resonance energy transfer of the anti-His- Eu-cryptate antibody to the streptavidin-XL665 present in the reaction. For that purpose, the fluorescence emission at 620 nm and 665 nm after excitation at 330-350 nm was measured in a TR-FRET measuring instrument, for instance a Rubystar or a Pherastar (both from BMG Lab Technologies, Offenburg, Germany) or a Viewlux (Perkin-Elmer). The ratio of the emission at 665 nm and at 622 nm was used as indicator of the amount of BCL-XL/Bad complexes present.
The resulting data (ratio) were normalized, taking 0% inhibition as the mean value of control measurements (usually 32 data points) where all reagents were included. In this case 50 nl DMSO were used instead of compounds. […] IC50 values were determined by regression analysis based on a 4 parameter equation (minimum, maximum, IC50, Hill; Y=Max+(Min−Max)/(1+(X/IC50)^Hill) using the Screener Software (Genedata).

[3] = caspase-3/7 induction, 3 h; read-out: Caspase SUDHL10 EC50 (median)
[4] = 5 h, CellTiter-Glo; read-out: Cytotox SUDHL10 IC50 (median)
[5] = 72 h, CellTiter-Glo; read-out: Antiproli HMC-1-8 IC50 median
[6] = read-out: Caspase SUDHL10 EC50 (median); caspase-3/7 induction, 3 h
[7] = Homo sapiens, SU-DHL10, 3 h, caspase-3/7 induction, 3 h; read-out: Caspase SUDHL10 EC50 (median)
[8] = Homo sapiens, SU-DHL10, 5 h, 5 h, CellTiter-Glo; read-out: Cytotox SUDHL10 IC50 (median)

Row | SMILES | EC50 (SUDHL10 cells [1]; [3]) | IC50 (SUDHL10 cells [2]; [4]) | IC50 (HMC-1-8 cells; [5]) | IC50 (BCL-XL) | EC50 (SUDHL10 cells [1]; [6]) | further results
1 | CCc1c2c(nn1C)C(CCC1CCOCC1)OCCCCn1c(C(=O)O)c(CCCOc3cccc4cc(F)ccc34)c3ccc(Cl)c-2c31 (single isomer, unassigned; enantiomer 1) [Example 61, 4-chloro-3-ethyl-7-{3-[(6-fluoronaphthalen-1-yl)oxy]propyl}-2-methyl-15-[2-(oxan-4-yl)ethyl]-2,10,11,12,13,15-hexahydropyrazolo[4′,3′:9,10][1,6]oxazacycloundecino[8,7,6-hi]indole-8-carboxylic Acid (Enantiomer 1)] | 23 nM | 29 nM | 186 nM | – | – | –
2 | CCc1c2c(nn1C)C(CCC(C)(C)O)OCCCCn1c(C(=O)O)c(CCCOc3cccc4cc(F)ccc34)c3ccc(Cl)c-2c31 (single isomer, unassigned; enantiomer 1) [Example 75, (+)-4-chloro-3-ethyl-7-{3-[(6-fluoronaphthalen-1-yl)oxy]propyl}-15-(3-hydroxy-3-methylbutyl)-2-methyl-2,10,11,12,13,15-hexahydropyrazolo[4′,3′:9,10][1,6]oxazacycloundecino[8,7,6-hi]indole-8-carboxylic Acid—N-ethylethanamine Salt (Enantiomer 1)] | 6.6 nM | 9.7 nM | 159 nM | – | – | –
3 | Cc1c2c(nn1C)C(CCN1CCOCC1)OCCCCn1c(C(=O)O)c(CCCOc3cccc4ccccc34)c3ccc(F)c-2c31 (single isomer, unassigned; enantiomer 2) [Example 9, 4-fluoro-2,3-dimethyl-15-[2-(morpholin-4-yl)ethyl]-7-{3-[(naphthalen-1-yl)oxy]propyl}-2,10,11,12,13,15-hexahydropyrazolo[4′,3′:9,10][1,6]oxazacycloundecino[8,7,6-hi]indole-8-carboxylic Acid—N-ethylethanamine Salt (Enantiomer 2)] | – | 16000 nM | – | > 20000 nM | 12000 nM | –
4 | Cc1c2c(nn1C)C(C)OCCCCn1c(C(=O)O)c(CCCOc3cccc4ccccc34)c3cccc-2c31 (racemic) [Example 1, (rac)-2,3,15-trimethyl-7-[3-(naphthalen-1-yloxy)propyl]-2,10,11,12,13,15-hexahydropyrazolo[4′,3′:9,10][1,6]oxazacycloundecino[8,7,6-hi]indole-8-carboxylic Acid (Mixture of Stereoisomers)] | – | – | – | > 20000 nM | – | EC50 (SUDHL10 cells [1]; [7]): 5900 nM; IC50 (SUDHL10 cells [2]; [8]): 6600 nM
5 | Cc1c2c(nn1C)C(CCN1CCOCC1)OCCCCn1c(C(=O)O)c(CCCOc3cccc4ccccc34)c3ccc(F)c-2c31 (racemic) [Example 7, (rac)-4-fluoro-2,3-dimethyl-15-[2-(morpholin-4-yl)ethyl]-7-[3-(naphthalen-1-yloxy)propyl]-2,10,11,12,13,15-hexahydropyrazolo[4′,3′:9,10][1,6]oxazacycloundecino[8,7,6-hi]indole-8-carboxylic Acid] | – | – | – | > 20000 nM | – | EC50 (SUDHL10 cells [1]; [7]): 360 nM; IC50 (SUDHL10 cells [2]; [8]): 380 nM
6 | CCc1c2c(nn1C)C1CCCCN1CCCCn1c(C(=O)O)c(CCCOc3cccc4ccccc34)c3ccc(Cl)c-2c31 (racemic) [Example 102, (rac)-18-chloro-1-ethyl-2-methyl-15-[3-(1-naphthyloxy)propyl]-2,3b,4,5,6,7,9,10,11,12-decahydropyrazolo[3′,4′:8,9]pyrido[1′,2′:6,7][1,6]diazacycloundecino[10,11,1-hi]indole-14-carboxylic Acid] | – | – | – | – | – | EC50 (SUDHL10 cells [1]; [7]): 1000 nM; IC50 (SUDHL10 cells [2]; [8]): 950 nM; IC50 (HMC-1-8 cells; 72 h, CellTiter-Glo, read-out: Antiproli HMC-1-8 IC50 median): 7470 nM
7 | Cc1c2c(nn1C)C(C)OCCCCn1c(C(=O)O)c(CCCOc3cccc4ccccc34)c3cccc-2c31 (single isomer, unassigned; stereoisomer 1) [Example 2, 2,3,15-trimethyl-7-[3-(naphthalen-1-yloxy)propyl]-2,10,11,12,13,15-hexahydropyrazolo[4′,3′:9,10][1,6]oxazacycloundecino[8,7,6-hi]indole-8-carboxylic Acid Trifluoroacetic Acid Salt (Stereoisomer 1)] | – | – | – | > 20000 nM | 2500 nM | IC50 (SUDHL10 cells [2]; read-out: Cytotox SUDHL10 IC50 (median); 5 h, CellTiter-Glo): 2500 nM
8 | CCc1c2c(nn1C)C1CCCN1CCCCn1c(C(=O)O)c(CCCOc3cccc4cc(F)ccc34)c3ccc(Cl)c-2c31 (single isomer, unassigned; (+)) [Example 105, (+)-17-chloro-1-ethyl-14-{3-[(6-fluoronaphthalen-1-yl)oxy]propyl}-2-methyl-3b,4,5,6,8,9,10,11-octahydro-2H-pyrazolo[3′,4′:8,9]pyrrolo[1′,2′:6,7][1,6]diazacycloundecino[10,11,1-hi]indole-13-carboxylic Acid] | 130 nM | 290 nM | 2660 nM | – | – | –
9 | CCc1c2c(nn1C)C(CCN1CCOCC1)OCCCCn1c(C(=O)O)c(CCCOc3cccc4ccccc34)c3ccc(F)c-2c31 (single isomer, unassigned; enantiomer 1) [Example 11, 3-ethyl-4-fluoro-2-methyl-15-[2-(morpholin-4-yl)ethyl]-7-{3-[(naphthalen-1-yl)oxy]propyl}-2,10,11,12,13,15-hexahydropyrazolo[4′,3′:9,10][1,6]oxazacycloundecino[8,7,6-hi]indole-8-carboxylic Acid—N-ethylethanamine Salt (Enantiomer 1)] | – | 250 nM | – | – | 190 nM | IC50 (HMC-1-8 cells; 72 h, read-out: Antiproli HMC-1-8 IC50 median, 72 h, CellTiter-Glo): 1030 nM
10 | CCc1c2c(nn1C)C(CCN1CC(F)(F)C1)OCCCCn1c(C(=O)O)c(CCCOc3cccc4cc(F)ccc34)c3ccc(Cl)c-2c31 (single isomer, unassigned; (+)) [Example 78, (+)-4-chloro-15-[2-(3,3-difluoroazetidin-1-yl)ethyl]-3-ethyl-7-{3-[(6-fluoronaphthalen-1-yl)oxy]propyl}-2-methyl-2,10,11,12,13,15-hexahydropyrazolo[4′,3′:9,10][1,6]oxazacycloundecino[8,7,6-hi]indole-8-carboxylic Acid—N-ethylethanamine Salt] | 9.9 nM | 12 nM | 563 nM | – | – | –
11 | CCc1c2c(nn1C)C(CCC1CCOCC1)OCCCCn1c(C(=O)O)c(CCCOc3cccc4cc(F)ccc34)c3ccc(Cl)c-2c31 (single isomer, unassigned; enantiomer 1) [Example 63, (+)-4-chloro-3-ethyl-7-{3-[(6-fluoronaphthalen-1-yl)oxy]propyl}-2-methyl-15-[2-(oxan-4-yl)ethyl]-2,10,11,12,13,15-hexahydropyrazolo[4′,3′:9,10][1,6]oxazacycloundecino[8,7,6-hi]indole-8-carboxylic Acid—N-ethylethanamine Salt (Enantiomer 1)] | – | 67 nM | – | – | 53 nM | IC50 (HMC-1-8 cells; read-out: Antiproli HMC-1-8 IC50 median; 72 h, CellTiter-Glo): 351 nM
